Reference: patent US20090270447A1, “2-Aryl-and 2-Heteroarylthiazolyl Compounds, Methods for Their Preparation and Use Thereof” (Wyeth, priority 2008, published 2009)

How the values were obtained:
[1] = system: xenografts of a human breast carcinoma cell line (MDA-MB-361); experiment: In-vivo activity in tumor xenografts; details: days 1 through 20
Method: Selected fused heterobicyclic 2-aryl- or 2-heteroarylthiazolyl compounds of formula I were tested for their activity in a securin parental cell line (HCT116 FB) and a securin knockout (KO) cell line. […] The in-vivo activity of selected fused heterobicyclic 2-arylarylthiazolyl compounds of formula I was studied in cells growing as xenografts in athymic (nude) mice. The effect of Examples 5-7 and 10 was studied in xenografts of a human breast carcinoma cell line (MDA-MB-361).
In-vivo Activity in Tumor Xenografts. The effectiveness of Examples 5-7 versus Vincristine at controlling tumor growth was studied and the results are summarized in Table 2 and FIG. 1. The 2-arylthiazolyl compounds were formulated 0.5% Methocel™ (methylcellulose) and 0.4% Tween 80™ (polysorbate-80 and oleic acid) and administered daily orally (PO), by gavage or intraperiotenially (IP) by syringe. Tumor mass [(length×width^2)/2] was determined every 7 days. Inhibition of tumor growth was calculated relative to conventional (vehicle treated) controls.

[2] = system: HCT116 cells (Securin+/+, securin parental cell line HCT116 FB); experiment: Growth inhibition of securin parental cells (SRB, 5 days); type: cell-based; details: Homo sapiens, HCT-116, 120 h
Method: (§1) IC50 analysis was performed for selected fused heterobicyclic 2-aryl or 2-heteroarylthiazolyl compounds that were tested on HCT116 cells and Securin “knock out” cell lines.
(§2) Cell Culture—HCT116 and securin “knock out” cells. HCT116 and securin “knock out” cells (D8 and F3) were grown in RPMI+5% fetal bovine serum and gentamycin. They were maintained in a humidified 37° C. incubator with 5% CO2. Since the securin “knock out” cells have active chromosomal instability, cells were used at a low passage number of 2-13 passages. At or before passage 13 a new vial of cells was thawed and used for the screen. Cell seeding—HCT116 cells and securin “knock out” cells were trypsinized and suspenended in RPMI+5% FBS at a density of 27,000 cells/mL. HCT116 and securin “knock out” cells were seeded separately in wells of a 96-well plate (Falcon Cat # 35-3872) at a cell density of 4000 cells per well. Cells were seeded in 150 μL of RPMI media containing 5% FBS and gentamycin. Cell seeding was performed under aseptic conditions. Cells were allowed to attach and grow overnight in a humidified 37° C. incubator.
(§3) Compound Dilution and Dispensation. A series of stock solutions, 10 mg/ml of 2-aryl- or 2-heteroarylthiazolyl compounds to be tested, were brought to room temperature. The compounds were diluted 1:50 in RPMI+5% FBS (Highest concentration 200 μg/mL). The compounds were then serially diluted 1:3 across a deep-well titration plate resulting in final concentrations in the plate of 200, 66.7, 22.2, 7.4, 2.4, 0.8 0.27, 0.091, 0.03, 0.01, and 0.0034 μg/mL with one well left without a compound. 50 μL of this dilution series was added to the 150 μL of cells to result in a final concentration of compound in with the cells of 50, 16.6, 5.5, 1.8, 0.6, 0.2, 0.068, 0.023, 0.0076, 0.0025, and 0.00084 μg/mL. The dilution and addition of compounds to the plates is performed using a Multimek 96 Robot (Beckman Coulter).
(§4) Incubation and analysis. After dosing, the cells in the 96 well plates were returned to the humidified 37° C. incubator. The compounds remained on the cells for 5 days. After 5 days, the cells were fixed to the plates with the addition of 50 μL of 50% (vol/vol) Trichloro Acetic Acid ([…]). The cells were fixed at 4° C. for 1 hour. The plates were washed 5 times in distilled water and allowed to dry. The cells were stained with 0.4% sulforhodamine B (Sigma) in 1% acetic acid. The cells were stained for 15 minutes at room temperature. The plates were then washed 3 times in 1% acetic acid. The plates were dried and the dye was solubilized in 10 mM Tris at pH 8.0. The plates were read on the Absorbence 560 setting on a Victor^2 V Model 1420 Multilabel HTS counter (Perkin Elmer).
(§5) Analysis of Results—IC50 data. Absorbence data was read off of the Victor and was converted to a percentage of the control (untreated) values. IC50 values were graphed and the point at which a 50% inhibition of the control level was determined. […] If the model was not able to determine an IC50, the IC50 was assigned to the lowest concentration that gives a 50% or greater decrease in absorbence compared to control levels. If the calculated IC50 value for a cell line exceeds the top concentration for the assay (typically 50 μg/mL), the assay was scored as >50.

[3] = system: securin "knock out" cells D8 (Securin−/−); experiment: Growth inhibition of securin knock out cells D8 (SRB, 5 days); type: cell-based; details: for IC50: 120 h, securin knock out D8 cells, 5 days, SRB; for Selectivity Ratio D8: IC50 HCT116 / IC50 securin KO D8
Method: as §1, §2, §3, §4, §5
(§6) Selectivity Ratio. The Selectivity Ratio is the ratio of IC50s between the parent cell line and the knock out cell line and is always a positive number and is typically an integer.

[4] = system: securin "knock out" cells F3 (Securin−/−); experiment: Growth inhibition of securin knock out cells F3 (SRB, 5 days); type: cell-based; details: for IC50: 120 h, securin knock out F3 cells, 5 days, SRB; for Selectivity Ratio F3: IC50 HCT116 / IC50 securin KO F3
Method: as §1, §2, §3, §4, §5, §6

Compound	S/T = # of Survivors/# of Treated on Day +21 post tumor staging ([1]; 5 mg/kg/dose PO)	% T/C Day 7 ([1]; 5 mg/kg/dose PO) [%]	Relative Tumor Growth Day 7 ([1]; 5 mg/kg/dose PO)	% T/C Day 14 ([1]; 5 mg/kg/dose PO) [%]	Relative Tumor Growth Day 14 ([1]; 5 mg/kg/dose PO)	% T/C Day 21 ([1]; 5 mg/kg/dose PO) [%]	Relative Tumor Growth Day 21 ([1]; 5 mg/kg/dose PO)	% T/C Day 7 ([1]; 10 mg/kg/dose PO) [%]	Relative Tumor Growth Day 7 ([1]; 10 mg/kg/dose PO)	% T/C Day 14 ([1]; 10 mg/kg/dose PO) [%]	Relative Tumor Growth Day 14 ([1]; 10 mg/kg/dose PO)	% T/C Day 21 ([1]; 10 mg/kg/dose PO) [%]	Relative Tumor Growth Day 21 ([1]; 10 mg/kg/dose PO)	IC50 [2] [µM]	IC50 [3] [µM]	Selectivity Ratio D8 [3]	IC50 [4] [µM]	Selectivity Ratio F3 [4]
O[C@@H]1CNCc2nc(-c3ccc(N4CCCC4)cc3)sc21 [Example 6, (7R)-2-(4-pyrrolidin-1-yl-phenyl)-4,5,6,7-tetrahydro[1,3]thiazolo[4,5-c]pyridin-7-ol]	9/10	88	1.46	74	3.72	71	6.53	106	1.76	81	4.06	80	7.32	14.5	0.45	32	0.429	34
O[C@H]1CNCc2nc(-c3ccc(N4CCCC4)cc3)sc21 [Example 7, (7S)-2-(4-pyrrolidin-1-yl-phenyl)-4,5,6,7-tetrahydro[1,3]thiazolo[4,5-c]pyridin-7-ol]	10/10	95	1.57	86	4.30	81	7.45	93	1.54	113	5.64	122	11.17	36.4	21.6	2	9.67	4
OC1CNCc2nc(-c3ccc(N4CCCC4)cc3)sc21 [Example 5, (7R,7S)-2-(4-pyrrolidin-1-yl-phenyl)-4,5,6,7-tetrahydro[1,3]thiazolo[4,5-c]pyridin-7-ol]								96	1.59	78	3.92	86	7.86	22.8	0.68	34	0.93	25
CN(C)c1ccc(-c2nc3c(s2)C(O)CNC3)c(CO)c1 (stereo not drawn) [Example 8, 2-(2-hydroxymethyl-4-dimethylamino-phenyl)-4,5,6,7-tetrahydro[1,3]thiazolo[4,5-c]pyridine-7-ol]														100	0.0989	1011	0.107	936
COC(=O)c1cc(N(C)C)ccc1-c1nc2c(s1)C(O)CNC2 (stereo not drawn) [Example 9, methyl 5-(dimethylamino)-2-(7-hydroxy-4,5,6,7-tetrahydro[1,3]thiazolo[4,5-c]pyridin-2-yl)benzoate]														100	0.53	189	0.67	149
